Data from the supplement of paper PMC13207355.

Tests used:
Conditions in all cases: exposure time: 72 h
E21 [1] = patient-derived glioblastoma stem cells of mesenchymal subtype; assay: surviving fraction (nuclei count normalised to DMSO); higher = more cells surviving (less toxic)
E28 [2] = patient-derived glioblastoma stem cells of classical subtype; assay: as above
E34 [3] = patient-derived glioblastoma stem cells of proneural subtype; assay: as above
FT3469 [4] = normal neural stem cell line; assay: as above
E13 [5] = patient-derived glioblastoma stem cells of classical subtype; assay: as above
E57 [6] = patient-derived glioblastoma stem cells of mesenchymal subtype; assay: as above
E31 [7] = patient-derived glioblastoma stem cells of proneural subtype; assay: as above
E21 [8] = assay: phenotypic distance (Euclidean, principal components) from DMSO controls (arbitrary units); higher = stronger morphological change
E28 [9] = assay: as above
E34 [10] = assay: as above
FT3469 [11] = assay: as above
E13 [12] = assay: as above
E57 [13] = assay: as above
E31 [14] = assay: as above
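Wherever phenotypic distance (Euclidean, principal components) from DMSO controls is given: cell Painting imaging in 384-well plates, CellProfiler features reduced to at least 20 principal components, Euclidean distance versus same-plate DMSO vehicle wells (0.1% v/v), median over six images per well.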
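Wherever surviving fraction (nuclei count normalised to DMSO) is given: nuclei counted by high-content imaging of Hoechst-stained cells in laminin-coated 384-well plates, relative to 0.1% DMSO vehicle wells, with staurosporine as cell-death control.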

Cn1nnc2c(C(N)=O)ncn2c1=O [Temozolomide]
Conditions | phenotypic distance | surviving fraction
E13 [5], 4.1 nM | – | 0.934
E13 [5], 12.3 nM | – | 0.862
E13 [5], 37 nM | – | 0.932
E13 [5], 111.1 nM | – | 0.981
E13 [5], 333.3 nM | – | 0.909
E13 [5], 1000 nM | – | 0.936
E13 [5], 3000 nM | – | 1.04
E13 [12], 4.1 nM | 0.92 | –
E13 [12], 12.3 nM | 0.797 | –
E13 [12], 37 nM | 0.786 | –
E13 [12], 111.1 nM | 0.576 | –
E13 [12], 333.3 nM | 0.8 | –
E13 [12], 1000 nM | 0.525 | –
E13 [12], 3000 nM | 0.666 | –
E21 [1], 4.1 nM | – | 0.919
E21 [1], 12.3 nM | – | 0.974
E21 [1], 37 nM | – | 0.955
E21 [1], 111.1 nM | – | 0.899
E21 [1], 333.3 nM | – | 0.883
E21 [1], 1000 nM | – | 0.988
E21 [1], 3000 nM | – | 0.862
E21 [8], 4.1 nM | 1.04 | –
E21 [8], 12.3 nM | 0.604 | –
E21 [8], 37 nM | 0.561 | –
E21 [8], 111.1 nM | 0.642 | –
E21 [8], 333.3 nM | 1.07 | –
E21 [8], 1000 nM | 0.394 | –
E21 [8], 3000 nM | 0.971 | –
E28 [2], 4.1 nM | – | 0.981
E28 [2], 12.3 nM | – | 0.95
E28 [2], 37 nM | – | 1.11
E28 [2], 111.1 nM | – | 1.02
E28 [2], 333.3 nM | – | 1.06
E28 [2], 1000 nM | – | 0.921
E28 [2], 3000 nM | – | 0.979
E28 [9], 4.1 nM | 0.473 | –
E28 [9], 12.3 nM | 0.496 | –
E28 [9], 37 nM | 0.568 | –
E28 [9], 111.1 nM | 0.62 | –
E28 [9], 333.3 nM | 0.378 | –
E28 [9], 1000 nM | 0.593 | –
E28 [9], 3000 nM | 0.453 | –
E31 [7], 4.1 nM | – | 0.882
E31 [7], 12.3 nM | – | 0.904
E31 [7], 37 nM | – | 0.833
E31 [7], 111.1 nM | – | 1.02
E31 [7], 333.3 nM | – | 1.02
E31 [7], 1000 nM | – | 0.972
E31 [7], 3000 nM | – | 0.803
E31 [14], 4.1 nM | 1.06 | –
E31 [14], 12.3 nM | 2.72 | –
E31 [14], 37 nM | 0.892 | –
E31 [14], 111.1 nM | 0.246 | –
E31 [14], 333.3 nM | 0.629 | –
E31 [14], 1000 nM | 0.411 | –
E31 [14], 3000 nM | 0.89 | –
E34 [3], 4.1 nM | – | 0.988
E34 [3], 12.3 nM | – | 0.89
E34 [3], 37 nM | – | 1.01
E34 [3], 111.1 nM | – | 0.947
E34 [3], 333.3 nM | – | 1.06
E34 [3], 1000 nM | – | 1.02
E34 [3], 3000 nM | – | 1.07
E34 [10], 4.1 nM | 0.82 | –
E34 [10], 12.3 nM | 0.663 | –
E34 [10], 37 nM | 0.714 | –
E34 [10], 111.1 nM | 0.388 | –
E34 [10], 333.3 nM | 0.867 | –
E34 [10], 1000 nM | 0.392 | –
E34 [10], 3000 nM | 0.466 | –
E57 [6], 4.1 nM | – | 0.946
E57 [6], 12.3 nM | – | 0.909
E57 [6], 37 nM | – | 0.95
E57 [6], 111.1 nM | – | 0.958
E57 [6], 333.3 nM | – | 0.951
E57 [6], 1000 nM | – | 0.953
E57 [6], 3000 nM | – | 0.931
E57 [13], 4.1 nM | 0.77 | –
E57 [13], 12.3 nM | 0.543 | –
E57 [13], 37 nM | 0.294 | –
E57 [13], 111.1 nM | 0.599 | –
E57 [13], 333.3 nM | 0.816 | –
E57 [13], 1000 nM | 0.662 | –
E57 [13], 3000 nM | 1.29 | –
FT3469 [4], 4.1 nM | – | 1.01
FT3469 [4], 12.3 nM | – | 0.927
FT3469 [4], 37 nM | – | 1
FT3469 [4], 111.1 nM | – | 0.936
FT3469 [4], 333.3 nM | – | 1.18
FT3469 [4], 1000 nM | – | 0.822
FT3469 [4], 3000 nM | – | 1.04
FT3469 [11], 4.1 nM | 1.43 | –
FT3469 [11], 12.3 nM | 1.01 | –
FT3469 [11], 37 nM | 0.484 | –
FT3469 [11], 111.1 nM | 0.802 | –
FT3469 [11], 333.3 nM | 0.852 | –
FT3469 [11], 1000 nM | 0.793 | –
FT3469 [11], 3000 nM | 0.513 | –
